From ChEMBL document CHEMBL5335830, “Unusual Sesquiterpenes from Streptomyces olindensis DAUFPE 5622” (J Nat Prod, 2024)
Calls of active or inactive are those of the source.

Key:
[1] = tested on: Candida albicans; assay: Antifungal activity against Candida albicans; assay type: functional, organism-based
[2] = tested on: Colon adenocarcinoma cell line; assay: Cytotoxicity against human Colon adenocarcinoma cells; assay type: functional, cell-based
[3] = tested on: Bacillus subtilis; assay: Antimicrobial activity against Bacillus subtilis; assay type: functional, organism-based
[4] = tested on: Escherichia coli; assay: Antimicrobial activity against Escherichia coli; assay type: functional, organism-based

Measured: Activity

CC1=CC(=O)C[C@H]2[C@@H](C)[C@@](C)(CO)CC[C@]12C
inactive: all assays above
